{"source": "PubChem BioAssay (NCI)", "assay_in_all_cases": "DTP human tumour cell line panel, 48 h", "key": {"[1]": {"tested_on": "NCI-H23 lung"}, "[2]": {"tested_on": "NCI-H460 lung"}, "[3]": {"tested_on": "NCI-H522 lung"}, "[4]": {"tested_on": "NCI/ADR-RES ovarian"}, "[5]": {"tested_on": "OVCAR-3 ovarian"}, "[6]": {"tested_on": "OVCAR-4 ovarian"}, "[7]": {"tested_on": "OVCAR-5 ovarian"}, "[8]": {"tested_on": "OVCAR-8 ovarian"}, "[9]": {"tested_on": "PC-3 prostate"}, "[10]": {"tested_on": "RPMI-8226 leukemia"}, "[11]": {"tested_on": "RXF 393 renal"}, "[12]": {"tested_on": "SF-268 CNS"}, "[13]": {"tested_on": "SF-295 CNS"}, "[14]": {"tested_on": "SF-539 CNS"}, "[15]": {"tested_on": "SK-MEL-2 melanoma"}, "[16]": {"tested_on": "SK-MEL-28 melanoma"}, "[17]": {"tested_on": "SK-MEL-5 melanoma"}, "[18]": {"tested_on": "SK-OV-3 ovarian"}, "[19]": {"tested_on": "SN12C renal"}, "[20]": {"tested_on": "SNB-19 CNS"}, "[21]": {"tested_on": "SNB-75 CNS"}, "[22]": {"tested_on": "SR leukemia"}, "[23]": {"tested_on": "SW-620 colon"}, "[24]": {"tested_on": "T-47D breast"}, "[25]": {"tested_on": "TK-10 renal"}, "[26]": {"tested_on": "U251 CNS"}, "[27]": {"tested_on": "UACC-257 melanoma"}, "[28]": {"tested_on": "UACC-62 melanoma"}, "[29]": {"tested_on": "UO-31 renal"}}, "note": "Values joined by “and” are separate entries in the source; they are usually repeats but may differ in a detail not shown here. Identical values can stand only once.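 Results reflect a 48-hour exposure of cells in 96-well plates to compound at five concentrations. The concentration for 50% growth inhibition is given as GI50. TGI marks complete inhibition of growth.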"}
{"smiles": "CCOc1ccc(Nc2c3ccccc3nc3ccccc23)cc1", "values": [{"measurement": "TGI", "setting": "[1]", "result": "4510 nM and 3300 nM"}, {"measurement": "GI50", "setting": "[2]", "result": "407 nM and 347 nM"}, {"measurement": "TGI", "setting": "[2]", "result": "3030 nM and 1820 nM"}, {"measurement": "GI50", "setting": "[3]", "result": "214 nM and 319 nM"}, {"measurement": "TGI", "setting": "[3]", "result": "1440 nM and 11800 nM"}, {"measurement": "GI50", "setting": "[4]", "result": "271 nM and 117 nM"}, {"measurement": "TGI", "setting": "[4]", "result": 588, "unit": "nM"}, {"measurement": "GI50", "setting": "[5]", "result": "313 nM and 264 nM"}, {"measurement": "TGI", "setting": "[5]", "result": "1170 nM and 1030 nM"}, {"measurement": "GI50", "setting": "[6]", "result": "748 nM and 1350 nM"}, {"measurement": "TGI", "setting": "[6]", "result": "7360 nM and 10800 nM"}, {"measurement": "GI50", "setting": "[7]", "result": "1910 nM and 514 nM"}, {"measurement": "TGI", "setting": "[7]", "result": "18300 nM and 13200 nM"}, {"measurement": "GI50", "setting": "[8]", "result": "540 nM and 592 nM"}, {"measurement": "TGI", "setting": "[8]", "result": "2450 nM and 15000 nM"}, {"measurement": "GI50", "setting": "[9]", "result": "392 nM and 748 nM"}, {"measurement": "TGI", "setting": "[9]", "result": "7290 nM and 5610 nM"}, {"measurement": "GI50", "setting": "[10]", "result": "1070 nM and 364 nM"}, {"measurement": "TGI", "setting": "[10]", "result": "4580 nM and 4030 nM"}, {"measurement": "GI50", "setting": "[11]", "result": "397 nM and 402 nM"}, {"measurement": "TGI", "setting": "[11]", "result": "2250 nM and 2710 nM"}, {"measurement": "GI50", "setting": "[12]", "result": "709 nM and 526 nM"}, {"measurement": "TGI", "setting": "[12]", "result": "19100 nM and 13900 nM"}, {"measurement": "GI50", "setting": "[13]", "result": "228 nM and 219 nM"}, {"measurement": "TGI", "setting": "[13]", "result": "1110 nM and 956 nM"}, {"measurement": "GI50", "setting": "[14]", "result": "510 nM and 419 nM"}, {"measurement": "TGI", "setting": "[14]", "result": "11800 nM and 10200 nM"}, {"measurement": "GI50", "setting": "[15]", "result": "402 nM and 413 nM"}, {"measurement": "TGI", "setting": "[15]", "result": "3760 nM and 1690 nM"}, {"measurement": "GI50", "setting": "[16]", "result": "855 nM and 378 nM"}, {"measurement": "TGI", "setting": "[16]", "result": "6510 nM and 2320 nM"}, {"measurement": "GI50", "setting": "[17]", "result": "343 nM and 371 nM"}, {"measurement": "TGI", "setting": "[17]", "result": "1330 nM and 1450 nM"}, {"measurement": "GI50", "setting": "[18]", "result": "501 nM and 323 nM"}, {"measurement": "TGI", "setting": "[18]", "result": "6060 nM and 7730 nM"}, {"measurement": "GI50", "setting": "[19]", "result": "1080 nM and 1000 nM"}, {"measurement": "TGI", "setting": "[19]", "result": "14500 nM and 9760 nM"}, {"measurement": "GI50", "setting": "[20]", "result": "817 nM and 556 nM"}, {"measurement": "TGI", "setting": "[20]", "result": "13800 nM and 15300 nM"}, {"measurement": "GI50", "setting": "[21]", "result": "309 nM and 250 nM"}, {"measurement": "TGI", "setting": "[21]", "result": "3390 nM and 1520 nM"}, {"measurement": "GI50", "setting": "[22]", "result": "307 nM and 42 nM"}, {"measurement": "TGI", "setting": "[22]", "result": "6890 nM and 1110 nM"}, {"measurement": "GI50", "setting": "[23]", "result": "369 nM and 339 nM"}, {"measurement": "TGI", "setting": "[23]", "result": "5200 nM and 4020 nM"}, {"measurement": "GI50", "setting": "[24]", "result": "1340 nM and 916 nM"}, {"measurement": "TGI", "setting": "[24]", "result": "3780 nM and 3830 nM"}, {"measurement": "GI50", "setting": "[25]", "result": "797 nM and 654 nM"}, {"measurement": "TGI", "setting": "[25]", "result": "4270 nM and 12300 nM"}, {"measurement": "GI50", "setting": "[26]", "result": "464 nM and 381 nM"}, {"measurement": "TGI", "setting": "[26]", "result": "2250 nM and 1900 nM"}, {"measurement": "GI50", "setting": "[27]", "result": "552 nM and 888 nM"}, {"measurement": "TGI", "setting": "[27]", "result": "2220 nM and 6320 nM"}, {"measurement": "GI50", "setting": "[28]", "result": "506 nM and 216 nM"}, {"measurement": "TGI", "setting": "[28]", "result": "4250 nM and 1300 nM"}, {"measurement": "GI50", "setting": "[29]", "result": "677 nM and 356 nM"}, {"measurement": "TGI", "setting": "[29]", "result": "3990 nM and 3740 nM"}]}
